What all share (format): biochemical
Experiment [1] concerns the target T1, c-Src kinase (human) (Homo sapiens, UniProt P12931).
T1 construct: purchased Upstate Biotechnology, Lake Placid, N.Y
The experiment can be described thus: c-Src Kinase Assay. The following applies: test concentration of 2 μM; multiple values are separate assay results. The procedure, abridged: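 Inhibition was read as 33P incorporation, counted on P30 filtermats, after a 40 min, 30° C reaction. Human c-Src acted on 100 μM Cdc2 peptide with 5 μM ATP (final), pH 7.0 MOPS/MgCl2. Values are percent inhibition at 2 μM compound, or IC50 where determined.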

Experiment [2] deals with T2, HER-2 (Homo sapiens, UniProt P04626).
T2 construct: His6 with thrombin site (N); purchased Proqinase (Freiburg, Germany)
In words: HER-2 Kinase Assay. The conditions noted are these: for IC50: value in parentheses; for inhibition at 1 µM: test concentration of 1 μM. The procedure, abridged:
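Read-out was scintillation counting of 33P incorporated into biotinylated polyGluTyr captured on streptavidin plates. Reactions ran 1 h at 30 °C with GST-fused HER-2 residues 679–1255, 1 μM ATP, Mn2+ and Mg2+ at pH 7.5; data given as percent inhibition at 1 μM, with IC50 where determined.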

Experiment [3] concerns the target T3, Lyn kinase (human) (Homo sapiens, UniProt P07948).
T3 construct: purchased Upstate Biotechnology, Lake Placid, N.Y
In words: Lyn Kinase Assay. The following applies: test concentration of 2 μM. In short, it runs like this: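 Radiometric filter-binding assay with recombinant human Lyn, poly(Glu,Tyr) substrate (0.1 mg/mL final), 5 μM ATP plus γ-33P-ATP in MOPS pH 7.5/Mg acetate buffer; 40 min at 30 °C, stopped with phosphoric acid, counted by scintillation. Reported as percent inhibition at 2 μM, with IC50 (μM) where determined.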

Experiment [4] deals with T4, EGFR (Homo sapiens, UniProt P00533).
T4 construct: The intracellular portion of EGFR started at nucleotide 2189 (corresponding to amino acid 667) and ended at the termination codon; made in house; host or cells: Sf9 insect cells (baculovirus)
In words: EGFR Kinase Assay. The following applies: for inhibition at 2 µM: test concentration of 2 μM, compounds without an IC50, read-out: EGFR inhibition in percent; for IC50: GST-EGFR, ATP 5 μM. In short, it runs like this:
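Potency came from triplicate 16-point half-log titrations starting at 200 uM, with IC50 fitted from % inhibition against log concentration, or % inhibition at 2 μM otherwise. Reaction: Sf9-made GST–EGFR cytoplasmic region (aa 667 onward), biotin-polyGluTyr, 5 μM ATP with 33P tracer, pH 8.0 Tris/Mg/vanadate/DTT, 30 °C for 1 h; captured on streptavidin Flashplates and counted.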

Drawing on patent US7579356B2, “Thia-tetraazaacenaphthylene kinase inhibitors” (Janssen Pharmaceutica NV, priority 2005, dated 2009), this text covers inhibition and IC50 for 14 molecules.

T4 sequence (P00533 669-1210 limits assumed): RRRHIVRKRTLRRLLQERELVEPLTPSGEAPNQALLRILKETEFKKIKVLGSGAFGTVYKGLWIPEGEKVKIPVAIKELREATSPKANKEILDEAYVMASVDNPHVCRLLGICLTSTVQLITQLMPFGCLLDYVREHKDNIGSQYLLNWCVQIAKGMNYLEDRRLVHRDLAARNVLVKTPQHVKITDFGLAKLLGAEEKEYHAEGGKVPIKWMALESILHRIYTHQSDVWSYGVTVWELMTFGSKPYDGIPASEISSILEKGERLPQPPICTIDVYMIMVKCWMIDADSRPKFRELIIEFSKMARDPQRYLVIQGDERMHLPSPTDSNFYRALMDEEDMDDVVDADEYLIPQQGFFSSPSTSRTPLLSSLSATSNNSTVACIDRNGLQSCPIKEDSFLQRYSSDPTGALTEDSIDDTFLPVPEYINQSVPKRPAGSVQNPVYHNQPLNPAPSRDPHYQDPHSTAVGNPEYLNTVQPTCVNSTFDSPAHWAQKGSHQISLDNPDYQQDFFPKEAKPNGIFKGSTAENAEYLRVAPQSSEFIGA
T2 sequence (P04626 679-1255): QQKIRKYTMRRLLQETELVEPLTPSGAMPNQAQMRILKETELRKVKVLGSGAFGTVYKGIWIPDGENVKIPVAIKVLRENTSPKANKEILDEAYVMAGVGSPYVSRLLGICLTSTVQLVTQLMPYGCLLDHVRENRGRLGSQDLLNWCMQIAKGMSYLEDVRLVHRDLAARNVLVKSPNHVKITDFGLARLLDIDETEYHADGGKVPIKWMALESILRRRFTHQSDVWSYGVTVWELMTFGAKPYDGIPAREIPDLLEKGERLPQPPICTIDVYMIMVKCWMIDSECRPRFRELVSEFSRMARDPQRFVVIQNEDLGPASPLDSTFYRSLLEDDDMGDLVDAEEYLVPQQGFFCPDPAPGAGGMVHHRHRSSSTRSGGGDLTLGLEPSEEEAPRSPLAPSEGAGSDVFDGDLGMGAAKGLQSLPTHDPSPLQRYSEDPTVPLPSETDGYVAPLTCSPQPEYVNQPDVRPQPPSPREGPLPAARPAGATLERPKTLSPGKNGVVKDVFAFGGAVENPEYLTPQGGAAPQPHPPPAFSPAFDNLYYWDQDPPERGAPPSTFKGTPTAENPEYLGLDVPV
T1 sequence (P12931 whole entry): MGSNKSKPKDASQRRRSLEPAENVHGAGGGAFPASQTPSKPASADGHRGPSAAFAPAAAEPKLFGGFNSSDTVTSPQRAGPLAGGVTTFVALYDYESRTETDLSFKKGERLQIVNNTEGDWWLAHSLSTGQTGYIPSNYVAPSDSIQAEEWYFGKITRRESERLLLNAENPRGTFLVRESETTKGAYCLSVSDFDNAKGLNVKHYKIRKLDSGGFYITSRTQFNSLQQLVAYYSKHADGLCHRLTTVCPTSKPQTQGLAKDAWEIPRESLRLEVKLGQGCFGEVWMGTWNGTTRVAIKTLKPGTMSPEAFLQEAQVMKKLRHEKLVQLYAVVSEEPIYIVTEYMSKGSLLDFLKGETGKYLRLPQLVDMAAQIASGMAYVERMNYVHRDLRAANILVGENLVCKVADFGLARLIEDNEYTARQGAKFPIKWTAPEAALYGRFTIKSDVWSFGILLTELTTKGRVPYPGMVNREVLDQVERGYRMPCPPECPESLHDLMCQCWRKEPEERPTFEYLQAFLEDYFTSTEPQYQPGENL
T3 sequence (P07948 whole entry): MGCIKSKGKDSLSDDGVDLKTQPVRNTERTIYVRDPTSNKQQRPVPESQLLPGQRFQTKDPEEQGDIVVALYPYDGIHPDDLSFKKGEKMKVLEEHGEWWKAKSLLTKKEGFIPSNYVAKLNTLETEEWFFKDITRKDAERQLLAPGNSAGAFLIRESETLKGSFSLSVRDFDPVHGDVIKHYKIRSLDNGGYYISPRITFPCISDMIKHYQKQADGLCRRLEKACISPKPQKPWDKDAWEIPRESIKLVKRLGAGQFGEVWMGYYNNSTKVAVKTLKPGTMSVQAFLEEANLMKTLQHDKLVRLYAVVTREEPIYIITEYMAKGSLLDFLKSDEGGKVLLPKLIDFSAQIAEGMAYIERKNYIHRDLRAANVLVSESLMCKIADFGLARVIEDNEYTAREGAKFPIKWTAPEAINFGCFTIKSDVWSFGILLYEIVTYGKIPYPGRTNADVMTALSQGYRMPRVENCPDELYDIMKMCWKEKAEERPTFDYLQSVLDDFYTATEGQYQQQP

Broadly, the inhibition is the relative decrease from the control value, in per cent. For orientation: IC50 means the point on the concentration scale where inhibition reaches its midpoint. As for `C[C@H](c1ccccc1)N1C(=O)Nc2c(C(=O)NC3CCN(C)CC3)sc3ncnc1c23` [Cpd 173, 4-oxo-5-[(1R)-1-phenyl-ethyl]-4,5-dihydro-3H-1-thia-3,5,6,8-tetraaza-acenaphthylene-2-carboxylic acid (1-methyl-piperidin-4-yl)-amide], the inhibition at 2 µM is -8% in experiment [1], -5% in experiment [3] and -3% in experiment [4]. Moreover, in experiment [2], the IC50 is more than 100000 nM.
Regarding `COc1cc(NC(=O)c2sc3ncnc4c3c2NC(=O)N4c2ccc(Br)cc2F)ccc1OCCN1CCOCC1` [Cpd 39, 5-(4-bromo-2-fluoro-phenyl)-4-oxo-4,5-dihydro-3H-1-thia-3,5,6,8-tetraaza-acenaphthylene-2-carboxylic acid [3-methoxy-4-(2-morpholin-4-yl-ethoxy)-phenyl]-amide], the inhibition at 2 µM in experiment [1] is 16%; in experiment [3], 11%. In addition, the inhibition at 1 µM in experiment [2] is 24%. This molecule displayed a concentration for half-maximal inhibition (IC50) in experiment [4] of 410 nM.
Take `COc1cc(N2C(=O)Nc3c(C(=O)Nc4ccc(OCC5CCCCO5)c(OC)c4)sc4ncnc2c34)c(Cl)cc1Cl` (stereo not shown) [Cpd 45, 5-(2,4-dichloro-5-methoxy-phenyl)-4-oxo-4,5-dihydro-3H-1-thia-3,5,6,8-tetraaza-acenaphthylene-2-carboxylic acid [3-methoxy-4-(tetrahydro-pyran-2-ylmethoxy)-phenyl)-amide]: the values for the inhibition at 2 µM in experiment [1], in experiment [3] and in experiment [4] were 17%, 29% and 14%, respectively. In addition, in experiment [2], the inhibition at 1 µM is -25%.
Regarding `O=C(Nc1ccc(CN2CCCCC2)cc1)c1sc2ncnc3c2c1NC(=O)N3c1ccc(F)cc1Cl` [Cpd 145, 5-(2-chloro-4-fluoro-phenyl)-4-oxo-4,5-dihydro-3H-1-thia-3,5,6,8-tetraaza-acenaphthylene-2-carboxylic acid (4-piperidin-1-ylmethyl-phenyl)-amide], the inhibition at 2 µM in experiment [1] was determined as 50%; in experiment [3], 83%. Also, in experiment [2], the inhibition at 1 µM stood at 54%. Besides, the IC50 in experiment [2] came to 4230 nM; in experiment [4], 166 nM.
As for `CC(C)(C)OC(=O)N1CCC(NC(=O)c2sc3ncnc4c3c2NC(=O)N4c2ccc(N3CCOCC3)cc2)CC1` [Cpd 126, 4-{[5-(4-morpholin-4-yl-phenyl)-4-oxo-4,5-dihydro-3H-1-thia-3,5,6,8-tetraaza-acenaphthylene-2-carbonyl]-amino}-piperidine-1-carboxylic acid tert-butyl ester], the figures for the inhibition at 2 µM in experiment [1], in experiment [3] and in experiment [4] were -4%, 19% and 3%, respectively. For the same molecule, in experiment [2], the IC50 is more than 100000 nM.
With `CN1CCCC(COc2ccc(NC(=O)c3sc4ncnc5c4c3NC(=O)N5c3ccc(Cl)cc3Cl)cc2)C1` (stereo not shown) [Cpd 32, 5-(2,4-dichloro-phenyl)-4-oxo-4,5-dihydro-3H-1-thia-3,5,6,8-tetraaza-acenaphthylene-2-carboxylic acid [4-(1-methyl-piperidin-3-ylmethoxy)-phenyl]-amide], the results for the inhibition at 2 µM in experiment [1] and in experiment [3] were 32% and 38%, respectively. For the same molecule, the inhibition at 1 µM in experiment [2] is 33%. Besides, the IC50 in experiment [4] amounted to 580 nM.
For the molecule `O=C(Nc1ccc(CN2CCOCC2)cc1)c1sc2ncnc3c2c1NC(=O)N3c1ccc2c(cnn2Cc2cccc(F)c2)c1` [Cpd 175, 5-[1-(3-fluoro-benzyl)-1H-indazol-5-yl]-4-oxo-4,5-dihydro-3H-1-thia-3,5,6,8-tetraaza-acenaphthylene-2-carboxylic acid (4-morpholin-4-ylmethyl-phenyl)-amide], the inhibition at 2 µM is -1% in experiment [1] and 0% in experiment [3]. For the same molecule, the IC50 in experiment [2] is 515 nM; in experiment [4] it was 130 nM.
As for `COc1cc(N2C(=O)Nc3c(C(=O)O)sc4ncnc2c34)cc(OC)c1OC` [Cpd 42, 4-oxo-5-(3,4,5-trimethoxy-phenyl)-4,5-dihydro-3H-1-thia-3,5,6,8-tetraaza-acenaphthylene-2-carboxylic acid], the inhibition at 2 µM in experiment [1] was 8%; in experiment [3], 24%; in experiment [4] it was -3%. The inhibition at 1 µM in experiment [2] is -36%.
On to `COc1cc(NC(=O)c2sc3ncnc4c3c2NC(=O)N4c2cc(OC)c(OC)c(OC)c2Cl)ccc1OCC1CCCCO1` (stereo not shown) [Cpd 30, 5-(2-chloro-3,4,5-trimethoxy-phenyl)-4-oxo-4,5-dihydro-3H-1-thia-3,5,6,8-tetraaza-acenaphthylene-2-carboxylic acid [3-methoxy-4-(tetrahydro-pyran-2-ylmethoxy)-phenyl]-amide], for which the inhibition at 2 µM in experiment [1] is 1%; in experiment [3], -6%. Further, in experiment [2], the inhibition at 1 µM stood at 19%. In experiment [4], this molecule had an IC50 of 19200 nM.
With `O=C(Nc1ccc(CN2CCCCC2)cc1)c1sc2ncnc3c2c1NC(=O)N3c1ccc(-c2ccc(Cl)cc2)cc1` [Cpd 139, 5-(4′-chloro-biphenyl-4-yl)-4-oxo-4,5-dihydro-3H-1-thia-3,5,6,8-tetraaza-acenaphthylene-2-carboxylic acid (4-piperidin-1-ylmethyl-phenyl)-amide], the inhibition at 2 µM in experiment [1] came out at 28%; in experiment [3] it was 34%; in experiment [4] it was 18%. In addition, the IC50 in experiment [2] was more than 100000 nM.
The matching figures for `C[C@H](c1ccccc1)N1C(=O)Nc2c(C(=O)O)sc3ncnc1c23` [Cpd 170, 4-oxo-5-[(1R)-1-phenyl-ethyl]-4,5-dihydro-3H-1-thia-3,5,6,8-tetraaza-acenaphthylene-2-carboxylic acid]: 4%, 12%, 11% and more than 100000 nM.
For `O=C(Nc1ccc(CCN2CCCCC2)cc1)c1sc2ncnc3c2c1NC(=O)N3c1ccc(Oc2cccc(F)c2)cc1` [Cpd 132, 5-[4-(3-fluoro-phenoxy)-phenyl]-4-oxo-4,5-dihydro-3H-1-thia-3,5,6,8-tetraaza-acenaphthylene-2-carboxylic acid [4-(2-piperidin-1-yl-ethyl)-phenyl]-amide], the inhibition at 2 µM amounted to 32% in experiment [1] and 33% in experiment [3]. In experiment [2], the inhibition at 1 µM was determined as 76%. Moreover, the results for the IC50 in experiment [2] and in experiment [4] were 495 nM and 15 nM, respectively.
In the case of `COc1cc(NC(=O)c2sc3ncnc4c3c2NC(=O)N4c2cc(OCc3cccc(F)c3)c(Cl)cc2Cl)ccc1OCCN1CCCCC1` [Cpd 56, 5-[2,4-dichloro-5-(3-fluoro-benzyloxy)-phenyl]-4-oxo-4,5-dihydro-3H-1-thia-3,5,6,8-tetraaza-acenaphthylene-2-carboxylic acid [3-methoxy-4-(2-piperidin-1-yl-ethoxy)-phenyl]-amide], the values for the inhibition at 2 µM in experiment [1], in experiment [3] and in experiment [4] were -22%, 7% and 20%, respectively. For the same molecule, the inhibition at 1 µM in experiment [2] was -6%.
Consider `CN(Cc1ccc(NC(=O)c2sc3ncnc4c3c2NC(=O)N4c2cc(OCc3cccc(F)c3)c(Cl)cc2Cl)cc1)C[C@H]1CCCO1` [Cpd 59, 5-[2,4-dichloro-5-(3-fluoro-benzyloxy)-phenyl]-4-oxo-4,5-dihydro-3H-1-thia-3,5,6,8-tetraaza-acenaphthylene-2-carboxylic acid [4-({methyl-[(2R)-tetrahydro-furan-2-ylmethyl]-amino}-methyl)-phenyl]-amide], for which the inhibition at 2 µM was -13% in experiment [1], 8% in experiment [3] and 20% in experiment [4]. Besides, the inhibition at 1 µM in experiment [2] was -18%.
